Here are results for one compound from patent US20060293307A1, “Oxazolidinone derivatives as antimicrobials” (priority 2002, published 2006).

A word on the MIC: it is the least concentration at which growth counts as inhibited.

One test deals with M. tuberculosis 50. In words: MIC against M. tuberculosis strains, agar dilution. The test is classed as cell-based, Mycobacterium tuberculosis. The note with it: S. No. 12 Mt-, Middle Brook 7H10 + OADC, 37° C., 14-21 days.
Test [1] concerns M. tuberculosis PC. In words: MIC against M. tuberculosis strains, agar dilution. The test is classed as cell-based, Mycobacterium tuberculosis. Conditions: S. No. 19 Mt-, Middle Brook 7H10 + OADC, 37° C., 14-21 days. (In agar dilution the substance is mixed into plates at graded concentrations.)
A further test concerns M avium ATCC 700897. Kind of test: MIC against MAC strains, agar dilution. The test is classed as cell-based, Mycobacterium avium. Conditions: S. No. 05 Ma-6, M avium ATCC 700897; Middle Brook 7H10 + OADC, 37° C., 14-21 days.
Another test deals with M. tuberculosis H37Ra. Kind of test: MIC against M. tuberculosis strains, agar dilution. Conditions: S. No. 24 Mt-, Middle Brook 7H10 + OADC, 37° C., 14-21 days. The test is classed as cell-based, Mycobacterium tuberculosis.
The test system of the next test is M. avium ATCC 49601. Kind of test: MIC against MAC strains, agar dilution. Type of test: cell-based, Mycobacterium avium. Conditions: S. No. 01 Ma-1, M. avium ATCC 49601; Middle Brook 7H10 + OADC, 37° C., 14-21 days.
For test [2], the system named is M. tuberculosis PC. Kind of test: MIC against M. tuberculosis strains, agar dilution. The note with it: S. No. 20 Mt-, Middle Brook 7H10 + OADC, 37° C., 14-21 days. Type of test: cell-based, Mycobacterium tuberculosis.
The test system of another test is M. avium AIIMS. In words: MIC against MAC strains, agar dilution. Type of test: cell-based, Mycobacterium avium. The note with it: S. No. 04 Ma-4, M. avium AIIMS; Middle Brook 7H10 + OADC, 37° C., 14-21 days.
The test system of the next test is M. avium ATCC 1723. In words: MIC against MAC strains, agar dilution. Type of test: cell-based, Mycobacterium avium. Conditions: S. No. 03 Ma-3, M. avium ATCC 1723; Middle Brook 7H10 + OADC, 37° C., 14-21 days.
In test [3] the test system is M. tuberculosis SGPGI. In words: MIC against M. tuberculosis strains, agar dilution. The test is classed as cell-based, Mycobacterium tuberculosis. The note with it: S. No. 06 Mt-, Middle Brook 7H10 + OADC, 37° C., 14-21 days.
Another test deals with M. tuberculosis H37Rv. Kind of test: MIC against M. tuberculosis strains, agar dilution. The test is classed as cell-based, Mycobacterium tuberculosis. The note with it: S. No. 04 Mt-, Middle Brook 7H10 + OADC, 37° C., 14-21 days.
Test [4] deals with M. tuberculosis SGPGI. Kind of test: MIC against M. tuberculosis strains, agar dilution. Type of test: cell-based, Mycobacterium tuberculosis. The note with it: S. No. 07 Mt-, Middle Brook 7H10 + OADC, 37° C., 14-21 days.
The test system of test [5] is M. avium intracellulare 18/98. In words: MIC against MAC strains, agar dilution. Conditions: S. No. 16 Mai-9, M. avium intracellulare 18/98; Middle Brook 7H10 + OADC, 37° C., 14-21 days. The test is classed as cell-based.
The subject of a further test is M. tuberculosis PC 4782. Kind of test: MIC against M. tuberculosis strains, agar dilution. Type of test: cell-based, Mycobacterium tuberculosis. Conditions: S. No. 21 Mt-, Middle Brook 7H10 + OADC, 37° C., 14-21 days.
Test [6] concerns M. intracellulare ATCC 13950. In words: MIC against MAC strains, agar dilution. Conditions: S. No. 06 Mi-1, M. intracellulare ATCC 13950; Middle Brook 7H10 + OADC, 37° C., 14-21 days. The test is classed as cell-based.
The test system of another test is M. tuberculosis M-168. In words: MIC against M. tuberculosis strains, agar dilution. The test is classed as cell-based, Mycobacterium tuberculosis. Conditions: S. No. 09 Mt-, Middle Brook 7H10 + OADC, 37° C., 14-21 days.
The test system of the next test is M. intracellulare F21/12. In words: MIC against MAC strains, agar dilution. Type of test: cell-based. Conditions: S. No. 08 Mi-3, M. intracellulare F21/12; Middle Brook 7H10 + OADC, 37° C., 14-21 days.
The next test concerns M avium ATCC 25291. In words: MIC against MAC strains, agar dilution. The test is classed as cell-based, Mycobacterium avium. Conditions: S. No. 02 Ma-2, M avium ATCC 25291; Middle Brook 7H10 + OADC, 37° C., 14-21 days.

For `C[C@@H]1CN(c2c(F)c(N)c3c(=O)c(C(=O)O)cn(C4CC4)c3c2F)C[C@H](C)N1` [SPAR], the MIC in the test with M. tuberculosis 50 was 4.0 µg/mL; with M. tuberculosis PC [1], “≦0.125 μg/ml”; in the test with M avium ATCC 700897 it was 2.0 µg/mL; in the test with M. tuberculosis H37Ra it was “≦0.12 μg/ml”; with M. avium ATCC 49601 it was 0.5 µg/mL; with M. tuberculosis PC [2] it was 8.0 µg/mL. Also, the MIC with M. avium AIIMS was 8.0 µg/mL; with M. avium ATCC 1723, 4.0 µg/mL; with M. tuberculosis SGPGI [3] it was 4.0 µg/mL; in the test on M. tuberculosis H37Rv, “≦0.125 μg/ml”; in the test on M. tuberculosis SGPGI [4], 4.0 µg/mL; in test [5] it was 2.0 µg/mL. Further, the minimal inhibitory concentration (MIC) entry was “≦0.125 μg/ml” in the test with M. tuberculosis PC 4782; 16 µg/mL in [6]; 2.0 µg/mL with M. tuberculosis M-168; 0.125 µg/mL in the test on M. intracellulare F21/12; 32 µg/mL with M avium ATCC 25291.
